The nature of experiment [1]: inhibitors of intracellular T. cruzi replication, confirmation, NIH3T3 host cells, beta-gal luminescence (AID 2044).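 Also: intracellular parasites grown in NIH/3T3 mouse fibroblasts as host cells; luminescent beta-galactosidase reporter signal from transgenic T. cruzi replicating inside host cells; inhibitors lower the luminescence signal.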 The class given is functional, cell-based.
Experiment [2] is described as follows: cytotoxicity toward NIH3T3 fibroblasts, dose response, counter-screen, cell-based, ATP luminescence, mouse fibroblasts (AID 2010).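 Also: cells exposed to compound for about 90 hours before reading.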 The class given is functional. (The purpose of a counterscreen is to sort out artefacts and off-target activity.)
Experiment [3] deals with T1, CAAX prenyl protease 2 (Saccharomyces cerevisiae S288c, UniProt Q03530).
T1 sequence (Q03530 whole entry): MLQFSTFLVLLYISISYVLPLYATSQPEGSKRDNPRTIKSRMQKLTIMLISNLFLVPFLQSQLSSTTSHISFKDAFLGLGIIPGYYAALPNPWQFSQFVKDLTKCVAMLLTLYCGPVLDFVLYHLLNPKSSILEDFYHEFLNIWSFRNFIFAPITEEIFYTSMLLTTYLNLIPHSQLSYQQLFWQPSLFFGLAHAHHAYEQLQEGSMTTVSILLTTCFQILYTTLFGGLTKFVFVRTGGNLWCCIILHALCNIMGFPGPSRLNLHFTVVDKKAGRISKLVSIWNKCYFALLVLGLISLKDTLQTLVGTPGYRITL
It counts as biochemical.

Experiment [4] is described as follows: HEp-2 cell cytotoxicity, dose response, cytotoxicity control for RSV inhibitor project, HTS (AID 2410). It counts as functional. As to conditions: human respiratory syncytial virus.
Experiment [5] has as its system Vero. Nature of the experiment: cells. It counts as functional, cell-based. As to conditions: Chlorocebus sabaeus.
The nature of experiment [6]: cells.
A short description of experiment [7]: THP-1 cell cytotoxicity, dose response, cytotoxicity control for non-replicating M. tuberculosis project (AID 489025). It counts as functional.
Experiment [8] is described as follows: HepG2 cell cytotoxicity, dose response, cytotoxicity control for non-replicating M. tuberculosis project (AID 489018). The class given is functional. The conditions noted are these: Mycobacterium tuberculosis.
Experiment [9] is described as follows: Vero E6 cell cytotoxicity, dose response, cytotoxicity control for non-replicating M. tuberculosis project, secondary assay (AID 492998). The conditions noted are these: Vero C1008. The class given is functional, VeroE6.
Experiment [10] is described as follows: cells. It counts as functional.
Experiment [11] has as its target DNA dC->dU-editing enzyme APOBEC-3A (Homo sapiens, UniProt P31941). Nature of the experiment: APOBEC3A DNA deaminase inhibitors, dose response, biochemical (AID 504722). It counts as functional.
For experiment [12], the target named is DNA dC->dU-editing enzyme APOBEC-3G (Homo sapiens, UniProt Q9HC16). The experiment in a line: Dose Response confirmation of small molecule APOBEC3G DNA Deaminase Inhibitors via a fluorescence-based single-stranded DNA deaminase assay. [Related pubchem assays (depositor defined):AID493012, AID493028]. It counts as functional.
Experiment [13] concerns the target T2, Rac GTPase-activating protein 1 (Homo sapiens, UniProt Q9H0H5).
T2 sequence (Q9H0H5 whole entry): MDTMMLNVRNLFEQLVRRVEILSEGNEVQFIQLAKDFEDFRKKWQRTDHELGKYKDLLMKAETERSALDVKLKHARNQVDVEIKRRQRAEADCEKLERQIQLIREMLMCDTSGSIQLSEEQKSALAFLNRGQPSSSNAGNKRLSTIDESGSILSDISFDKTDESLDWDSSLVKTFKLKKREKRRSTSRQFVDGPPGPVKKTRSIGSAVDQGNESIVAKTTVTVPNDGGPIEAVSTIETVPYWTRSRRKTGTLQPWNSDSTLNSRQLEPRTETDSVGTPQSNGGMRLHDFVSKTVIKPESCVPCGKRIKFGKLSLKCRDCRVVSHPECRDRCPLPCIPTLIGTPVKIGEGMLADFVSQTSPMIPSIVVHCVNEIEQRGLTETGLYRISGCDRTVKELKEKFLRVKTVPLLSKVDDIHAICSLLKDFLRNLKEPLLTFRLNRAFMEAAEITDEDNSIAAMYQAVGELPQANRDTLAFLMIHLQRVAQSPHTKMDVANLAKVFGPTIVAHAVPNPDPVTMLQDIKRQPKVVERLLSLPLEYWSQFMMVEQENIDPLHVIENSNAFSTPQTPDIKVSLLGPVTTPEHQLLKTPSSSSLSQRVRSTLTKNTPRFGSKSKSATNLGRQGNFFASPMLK
Nature of the experiment: MgcRacGAP GTPase-activating activity inhibitors, confirmation, biochemical, ADP Hunter fluorescence, primary and confirmatory (AID 624330). It counts as functional.

The target of experiment [14] is Eukaryotic translation initiation factor 4E (Mus musculus, UniProt P63073). Nature of the experiment: eIF4E–eIF4G protein interaction inhibitors, dose response, biochemical, TR-FRET (AID 855).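 Also: potency for disrupting eIF4E binding to eIF4GI seen as loss of FRET.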 It counts as functional.
Experiment [15] has as its target T3, Heat shock factor protein 1 (Mus musculus, UniProt P38532).
T3 sequence (P38532 whole entry): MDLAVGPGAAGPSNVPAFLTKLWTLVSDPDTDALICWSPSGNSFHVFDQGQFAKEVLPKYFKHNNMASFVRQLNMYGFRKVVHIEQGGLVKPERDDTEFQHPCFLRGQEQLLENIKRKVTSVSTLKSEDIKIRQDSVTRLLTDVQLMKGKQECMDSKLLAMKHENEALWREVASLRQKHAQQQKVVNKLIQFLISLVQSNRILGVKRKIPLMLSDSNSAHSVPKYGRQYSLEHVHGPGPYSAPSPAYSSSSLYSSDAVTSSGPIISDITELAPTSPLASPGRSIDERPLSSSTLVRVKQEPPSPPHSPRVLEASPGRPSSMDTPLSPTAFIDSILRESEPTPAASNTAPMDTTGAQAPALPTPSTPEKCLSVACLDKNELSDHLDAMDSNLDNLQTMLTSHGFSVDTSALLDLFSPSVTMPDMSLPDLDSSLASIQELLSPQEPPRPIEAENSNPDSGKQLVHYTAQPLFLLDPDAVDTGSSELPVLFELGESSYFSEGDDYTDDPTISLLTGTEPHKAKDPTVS
Nature of the experiment: HSF1 potentiators in luciferase reporter cells, confirmation, cell-based, NIH3T3, luminescence, dose retest (AID 435004).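 Also: stress induced by proteasome inhibitor MG132 added 30 min after compound; luciferase reporter driven by HSF1 response element in NIH3T3 cells; actives raise luminescence as potentiators of the MG132 stress response.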 It counts as functional.

For experiment [16], the system named is Vero. Nature of the experiment: cells. The conditions noted are these: Chlorocebus sabaeus. It counts as functional.
Experiment [17] in a line: cells. This is another data set of the same source.
For experiment [18], the target named is T4, Corticotropin-releasing factor receptor 2/Corticotropin-releasing factor-binding protein (Homo sapiens, UniProt P24387+Q13324).
T4 sequence (Q13324 whole entry): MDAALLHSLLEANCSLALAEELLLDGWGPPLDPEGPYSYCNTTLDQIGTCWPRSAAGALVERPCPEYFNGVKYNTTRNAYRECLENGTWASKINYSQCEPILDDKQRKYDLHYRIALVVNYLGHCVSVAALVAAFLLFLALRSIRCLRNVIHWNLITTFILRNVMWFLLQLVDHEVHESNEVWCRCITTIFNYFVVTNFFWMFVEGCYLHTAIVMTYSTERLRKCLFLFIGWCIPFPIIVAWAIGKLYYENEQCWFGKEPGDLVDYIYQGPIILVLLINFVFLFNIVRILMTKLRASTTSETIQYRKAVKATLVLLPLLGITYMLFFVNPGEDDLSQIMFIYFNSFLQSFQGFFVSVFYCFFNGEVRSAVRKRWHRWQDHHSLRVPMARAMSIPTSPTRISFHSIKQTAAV
T4 sequence (P24387 whole entry): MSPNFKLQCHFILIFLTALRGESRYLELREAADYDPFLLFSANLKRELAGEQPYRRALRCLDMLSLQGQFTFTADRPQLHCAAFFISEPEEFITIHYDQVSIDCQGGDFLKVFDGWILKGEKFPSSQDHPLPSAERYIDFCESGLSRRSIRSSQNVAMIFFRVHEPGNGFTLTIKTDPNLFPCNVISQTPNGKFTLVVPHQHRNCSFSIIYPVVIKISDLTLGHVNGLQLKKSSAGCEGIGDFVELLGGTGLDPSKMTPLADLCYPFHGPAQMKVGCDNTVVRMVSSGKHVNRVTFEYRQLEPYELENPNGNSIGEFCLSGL
Nature of the experiment: Dose Response confirmation of uHTS hits for small molecule antagonists of the CRF-binding protein and CRF-R2 receptor complex. It counts as functional. The conditions noted are these: read-out: IC50_Mean.

For experiment [19], the target named is T4, Corticotropin-releasing factor receptor 2/Corticotropin-releasing factor-binding protein. The experiment in a line: activators of CRF receptor 2 with binding protein – uHTS hits, confirmation (AID 602473). The conditions noted are these: read-out: EC50_Mean. The class given is functional.

The source made the active and inactive calls.

Sequence of DNA dC->dU-editing enzyme APOBEC-3G (Q9HC16 whole entry): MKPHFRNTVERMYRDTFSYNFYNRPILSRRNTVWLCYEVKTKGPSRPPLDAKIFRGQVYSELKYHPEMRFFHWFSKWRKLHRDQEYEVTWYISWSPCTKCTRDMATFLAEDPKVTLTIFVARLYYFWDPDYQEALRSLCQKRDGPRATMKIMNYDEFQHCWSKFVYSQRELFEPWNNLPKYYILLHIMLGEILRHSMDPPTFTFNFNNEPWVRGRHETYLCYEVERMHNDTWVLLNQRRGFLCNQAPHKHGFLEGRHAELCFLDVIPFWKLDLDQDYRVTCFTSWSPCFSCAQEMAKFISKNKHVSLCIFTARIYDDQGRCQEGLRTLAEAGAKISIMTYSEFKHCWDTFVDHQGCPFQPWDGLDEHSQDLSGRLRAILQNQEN
Sequence of DNA dC->dU-editing enzyme APOBEC-3A (P31941 whole entry): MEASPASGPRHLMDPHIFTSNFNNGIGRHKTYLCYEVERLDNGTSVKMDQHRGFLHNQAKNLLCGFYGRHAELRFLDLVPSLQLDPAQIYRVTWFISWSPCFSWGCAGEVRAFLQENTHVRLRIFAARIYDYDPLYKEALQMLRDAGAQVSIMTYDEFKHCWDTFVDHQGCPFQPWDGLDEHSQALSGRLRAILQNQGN
Sequence of Eukaryotic translation initiation factor 4E (P63073 whole entry): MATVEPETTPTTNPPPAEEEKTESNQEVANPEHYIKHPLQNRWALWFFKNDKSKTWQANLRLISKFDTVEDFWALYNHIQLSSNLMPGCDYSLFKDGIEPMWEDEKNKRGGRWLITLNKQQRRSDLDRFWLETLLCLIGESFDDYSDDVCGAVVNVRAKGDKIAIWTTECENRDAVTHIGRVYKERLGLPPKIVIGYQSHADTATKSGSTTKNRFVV

In general, AC50 refers to the concentration giving half of the maximal activity seen. As to `O=C(Nc1ccc(Cl)c([N+](=O)[O-])c1)C(Sc1ccccc1)c1ccccc1` (stereo unspecified), the results for the EC50 in [1] and in [2] were 1.45 µM (active) and > 60 µM (inconclusive), respectively. Also, the AC50 in experiment [3] was 7.77 µM (active).
As a reminder, the CC50 is the concentration giving 50% cytotoxicity. Turning to `COCCn1c(SC(C)C(=O)Nc2ncc(Cl)cc2Cl)nc2ccccc21` (stereo unspecified), in experiment [4], the CC50 was 25.5 µM (active). Moreover, the IC50 in experiment [5] was 8.99 µM (active); in experiment [6], 14.8 µM (active).
With `CCOC(=O)Cc1csc(NC(=O)c2c(O)c3ccccc3n(CCC(C)C)c2=O)n1`, the CC50 was 15.2 µM (active) in experiment [7], > 20 µM (active) in [8] and 8.56 µM (active) in [9]. For the same compound, the IC50 in [10] was 2.08 µM (active).
Regarding `Cc1cc(-c2nnc(S)n2/N=C/c2ccccc2[N+](=O)[O-])[nH]n1`, the IC50 is > 100 µM (inactive) in [11], 6.21 µM (active) in experiment [12] and 107 µM (active) in experiment [13].
As for `C=CCSc1nc(-c2ccc(OC)cc2)c(C#N)c(=O)n1CC=C`, in [14], the IC50 is 50 µM (inactive). Also, in experiment [15], the EC50 is 12.7 µM (active).
For `COc1cc2c(cc1OC)CN(C(=O)c1cccc(S(=O)(=O)N3CCc4ccccc43)c1)CC2`, the CC50 in [4] was 18.7 µM (active); in experiment [16] it was > 25 µM (active). For the same compound, the IC50 is 19.5 µM (active) in [5] and 45.9 µM (active) in experiment [6].
Take `Cc1cc(C[n+]2cc(Cl)ccc2N)c2ncccc2c1`: the CC50 in [4] is > 50 µM (active). Moreover, the IC50 in experiment [6] is 35.7 µM (active).
With `Nn1c(Cc2cccc3ccccc23)n[nH]c1=S`, the IC50 in experiment [11] is > 100 µM (inactive); in experiment [12], 2.94 µM (active).
Take `CCOc1ccc(N2C(=O)C(CC(=O)Nc3ccccc3)N(Cc3ccccn3)C2=S)cc1` (stereo unspecified): in experiment [4], the cytotoxic concentration (CC50) is 33.6 µM (active). Further, the IC50 in experiment [6] was 5 µM (active).
Take `CCOC(=O)Nc1ccc2c(c1)N(C(=O)CCN1CCOCC1)c1ccccc1[S+]2[O-]` (stereo unspecified): the results for the CC50 in experiment [7] and in [9] were 26.7 µM (active) and > 20 µM (active), respectively. In [15], the EC50 was > 260 µM (inactive).
With `CCOC(=O)[C@@H]1[C@H]2COc3ccc(Br)cc3[C@@H]2N2C(=O)N(c3cccc(C)c3)C(=O)[C@]12C`, the AC50 in experiment [3] was 4.52 µM (active).
In the case of `Cn1c(S)nnc1-c1csc(-c2ccccc2)n1`, the results for the IC50 in [11] and in [12] were > 100 µM (inactive) and 3.06 µM (active), respectively.
Take `S=C(NCCc1ccccc1)N1CCn2cccc2C1c1cccnc1` (stereo unspecified): the EC50 was < 0.1 µM (active) in experiment [1], > 60 µM (not active) in experiment [2] and 0.112 µM (active) in [17].
On to `CCn1c(SC)nnc1-c1sc2cc(Cl)ccc2c1Cl`, for which the CC50 in experiment [4] is 11.2 µM (active). In experiment [6], the IC50 is 9.26 µM (active).
Take `COc1ccccc1-c1nnc(NC(=O)c2ccc3ncsc3c2)o1`: the CC50 is > 40 µM (active) in experiment [7], > 20 µM (active) in experiment [8] and 10.3 µM (active) in experiment [9]. Further, the IC50 in experiment [10] is 7.75 µM (active).
For `C/C(=N\NC(=O)COc1cccc(C)c1)c1ccc2ccccc2c1O`, the results for the CC50 in experiment [7], in experiment [8] and in experiment [9] were 8.95 µM (active), 19.1 µM (active) and 16.5 µM (active), respectively.
Consider `CC(C)(CO)CNC1CCCN(C2Cc3ccccc3C2)C1` (stereo unspecified), for which the EC50 in [1] was < 0.1 µM (active); in experiment [2], 10.5 µM (active); in experiment [17] it was 0.12 µM (active).
With `CCc1nnc(S)n1/N=C/c1ccc(N(CC)CC)cc1`, the IC50 in experiment [11] is > 100 µM (inactive); in experiment [12] it was 6.69 µM (active).
As for `CCCCN(C)Cc1c(C)nc2c(Cl)cccc2c1O`, the results for the EC50 in experiment [1], in [2] and in experiment [17] were < 0.1 µM (active), > 60 µM (not active) and 0.074 µM (active), respectively.
For the compound `O=C(CNc1ccccc1)N/N=C/c1ccc([N+](=O)[O-])o1`, the EC50 in experiment [1] is < 0.1 µM (active); in [2] it was > 60 µM (not active); in [19], > 53 µM (inactive); in [17] it was 0.091 µM (active). For the same compound, the IC50 in experiment [18] is > 47.1 µM (inactive).

The values are drawn from ChEMBL document CHEMBL1201862, “PubChem BioAssay data set” (2004).
